We go through one compound from publication PMC7509555, “An In Vitro Study for Evaluating Permeability and Metabolism of Kurarinone” (Evidence-based Complementary and Alternative Medicine : eCAM, 2020).

In data set [1] the test system is HL-7702 cells. The settings on record: cited from earlier work.
The nature of data set [2]: Prediction of in vivo hepatic clearance in human from HLM kinetics. The class given is in vitro ADME. The text has this: (§1) The following equations were utilized to predict the in vivo hepatic clearance of kurarinone in humans and rats.(1) CLint in vitro=Vmax/Km, (2) […], (3) CLH=QH·fu·CLint in/QH+fu·CLint in vivo, where the SF (scaling factor) represents the milligrams of microsomal protein per gram of the liver multiplied by the grams of liver weight; CLint is the intrinsic metabolic clearance; CLH is hepatic clearance; fu is the free fraction in the blood (no data were available for kurarinone; thus, fu was arbitrarily proposed to be 1); and QH is the hepatic blood flow. The CLH of kurarinone was calculated using equations (1)–(3).

In data set [3] the test system is minipig liver microsomes (PLMs). Briefly: Enzyme kinetics of P1 formation from kurarinone in PLMs. The class given is in vitro ADME. The method, then: (§2) Samples were prepared in a total volume of 200 μL, containing 0.3 mg/mL protein in human liver microsomes or 15 nM protein in recombinant human supersomes, probe substrates or 50 μM kurarinone, 10 mM MgCl2, 10 mM glucose-6-phosphate, and 1 unit/mL of glucose-6-phosphate dehydrogenase. The reactions were activated by adding NADPH following preincubation at 37°C for 5 min. The reactions were maintained at 37°C for 1 h and terminated by adding 200 μL ice-cold acetonitrile. The supernatant (10 μL) collected from the samples that were centrifuged (20,000 g, 20 min, 4°C) was injected into the HPLC system for analysis. Control incubations devoid of NADPH or kurarinone were performed parallelly to ensure that the produced metabolites were NADPH- or kurarinone-dependent.
(§3) Various concentrations of kurarinone (1–200 μM) were incubated with RLMs, MLMs, PLMs, RAMs, CYP1A2, and CYP2D6 to estimate kinetic parameters. The rest of the other conditions remained the same as described in Section 2.3. […] The apparent Km and Vmax values were calculated from nonlinear regression analysis of experimental data according to the Michaelis–Menten equation, and the results were represented graphically by Eadie–Hofstee plots. All incubations were carried out as triplicate independent experiments, and kinetic constants were recorded as mean ± SD.

The subject of data set [4] is CYP2C9. Briefly: Inhibition of CYP2C9 activity (diclofenac probe) in RLMs. Type of data set: in vitro ADME. To be noted: rat, rat liver microsomes, probe diclofenac 10 μM, 100 μM kurarinone, 10 μM diclofenac. The method, then: as §2
RLMs were used to assess the inhibitory effects of kurarinone (100 μM) on six different human isoforms (CYP1A2, CYP2C9, CYP2D6, CYP2E1, CYP3A4, and CYP2C19). The probe substrates used in this experiment were 40 μM phenacetin for CYP1A2, 10 μM diclofenac for CYP2C9, 25 μM dextromethorphan for CYP2D6, 120 μM chlorzoxazone for CYP2E1, 35 μM testosterone for CYP3A4, and 20 μM (S)-mephenytoin for […] as described earlier. The reaction system has been described in Section 2.3. […]
Background: Microsomes from liver hold many membrane-bound enzymes, among them those of drug oxidation.

Data set [5] has as its target T1, CYP1A2 (Rattus norvegicus, UniProt P04799).
T1 construct: tissue Research Institute for Liver Disease Co., Ltd. (Shanghai, China); host or cells: pooled rat liver microsomes
T1 sequence (P04799 2-513): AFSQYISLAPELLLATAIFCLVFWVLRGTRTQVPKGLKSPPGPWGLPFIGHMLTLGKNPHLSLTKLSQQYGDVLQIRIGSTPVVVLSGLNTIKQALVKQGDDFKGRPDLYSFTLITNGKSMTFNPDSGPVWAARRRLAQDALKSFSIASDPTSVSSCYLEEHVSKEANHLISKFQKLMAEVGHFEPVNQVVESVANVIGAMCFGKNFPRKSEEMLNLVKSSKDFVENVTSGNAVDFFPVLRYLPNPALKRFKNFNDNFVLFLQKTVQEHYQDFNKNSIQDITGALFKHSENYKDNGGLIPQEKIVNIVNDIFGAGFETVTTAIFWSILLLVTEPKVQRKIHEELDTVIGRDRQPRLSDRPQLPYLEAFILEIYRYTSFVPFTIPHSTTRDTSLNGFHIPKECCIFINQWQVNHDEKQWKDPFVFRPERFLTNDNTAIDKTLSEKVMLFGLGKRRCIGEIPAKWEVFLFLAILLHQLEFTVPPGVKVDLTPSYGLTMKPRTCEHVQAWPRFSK
Description: Inhibition of CYP1A2 activity (phenacetin O-deethylation) in RLMs. The class given is in vitro ADME. As for the experimental part: as §2
RLMs were used to assess the inhibitory effects of kurarinone (100 μM) on six different human isoforms (CYP1A2, CYP2C9, CYP2D6, CYP2E1, CYP3A4, and CYP2C19). The probe substrates used in this experiment were 40 μM phenacetin for CYP1A2, 10 μM diclofenac for CYP2C9, 25 μM dextromethorphan for CYP2D6, 120 μM chlorzoxazone for CYP2E1, 35 μM testosterone for CYP3A4, and 20 μM (S)-mephenytoin for […] as described earlier. The reaction system has been described in Section 2.3. […] Dixon and Lineweaver–Burk plots were formed to confirm the reversible inhibition type, and a second plot of slopes from the Lineweaver–Burk plot over the concentrations of kurarinone was used to estimate the Ki value. All incubations were performed in triplicates, and mean values were used for analysis.

Data set [6] relates to rat liver microsomes (RLMs). Briefly: Enzyme kinetics of P1 formation from kurarinone in RLMs. Type of data set: in vitro ADME. The method, then:
as §2, §3

A short description of data set [7]: Prediction of in vivo hepatic clearance in rat from RLM kinetics. The class given is in vitro ADME.
Source text: as §1

Details of data set [8]: method as in PMID 25703950. The settings on record: rats, cited from earlier work.
The subject of data set [9] is human liver microsomes (HLMs). Description: Enzyme kinetics of P1 formation from kurarinone in HLMs. The class given is in vitro ADME.
Data set [10] relates to monkey liver microsomes (MLMs). Description: Enzyme kinetics of P1 formation from kurarinone in MLMs. The class given is in vitro ADME. The method, then: as §2, §3
The test system of data set [11] is primary rat hepatocytes. The settings on record: cited from earlier work.

Structures are written as SMILES.

Take `C=C(C)[C@H](CC=C(C)C)Cc1c(O)cc(OC)c2c1O[C@H](c1ccc(O)cc1O)CC2=O` [Kurarinone]: the cytotoxicity result in data set [1] and in data set [11] was “remarkable cytotoxicity” in each case. Moreover, the “percentage of CLH versus hepatic blood flow (QH)” value in [2] (human) is 81.27%; in data set [7] (rat), 83.35%. In addition, the “predicted hepatic clearance CLH” value in [2] (humans, from HLM kinetic parameters of P1, fu assumed 1) is listed as 16.82 mL/min/kg; in data set [7] (rats, from RLM kinetic parameters of P1, fu assumed 1), 46.01 mL/min/kg body weight. In addition, the “clearance category based on CLH projected from in vitro data” value in data set [2] (in humans, high-clearance = >70% liver blood flow) was “high-clearance”. For the same compound, the “Vmax of P1 formation” value in [3] turned out to be 8.46 ± 0.74 nmol·min^−1·mg^−1 protein; in [6], 3.34 ± 0.19 nmol·min^−1·mg^−1 protein; in data set [9], 1.56 ± 0.24 nmol·min^−1·mg^−1 protein; in [10], 4.83 ± 0.14 nmol·min^−1·mg^−1 protein. The Km in [3] (kurarinone 1–200 μM) stood at 49.9 ± 7.91 µM; in data set [6] (kurarinone 1–200 μM), 18.1 ± 3.91 µM; in data set [9] (kurarinone 1–200 μM) it was 22 ± 4.93 µM; in data set [10] (kurarinone 1–200 μM), 21 ± 3.42 µM. The inhibition at 1 h, 100 μM in data set [4] is above 90%; in data set [5] (rat, rat liver microsomes, probe phenacetin 40 μM (O-deethylation), 100 μM kurarinone, 40 μM phenacetin, RLMs), above 90%. Besides, the “inhibition type against CYP1A2” value in data set [5] (Dixon and Lineweaver–Burk plots) is reported as “competitive”. Also, in data set [5] (phenacetin O-deethylation, RLMs, read-out: IC50 against CYP1A2), the IC50 is 10 µM. The Ki in data set [5] (second plot of slopes from Lineweaver–Burk plots, RLMs) was determined as 8.13 µM. For the same compound, the t1/2 in data set [8] (intravenous 10 mg/kg) was 1.81 h. Also, the Cmax in [8] is 1668.01 ng/mL.

A word on the Km: it is the substrate concentration at which the rate is half of its maximum. In general, inhibition refers to the drop in the measured response relative to a control, in per cent. For orientation: IC50 means the point on the concentration scale where inhibition reaches its midpoint. A word on the Ki: it is a dissociation constant, usually derived from enzyme kinetics or from competition with a known ligand. Usually Cmax stands for the highest concentration seen after dosing.
